Patent publication US20200370102A1, “BIOMARKER INDICATING RESPONSE TO POZIOTINIB THERAPY FOR CANCER” (HANMI PHARM. CO., LTD., priority 2017, published 2020)

Key:
[1] = tested on: cancer cells having overexpression of Her1 or Her2 or activated mutations; conditions: in vitro, various carcinomas; cited from earlier work
[2] = tested on: HER2-positive metastatic breast cancer; assay: open-label, multicenter study of poziotinib monotherapy in breast cancer patients, with genotype (NGS) analysis; type: in vivo, human
Description: Poziotinib is a pan-HER inhibitor small molecule breast cancer therapeutic agent under clinical development. […] Recently, through an open-label, multicenter, two-phase study of poziotinib monotherapy, it was evaluated whether poziotinib was an option for breast cancer patients with HER2-positive metastatic breast cancer who twice or more experienced the failure of 2 HER2 target treatments. The genetic profile of HER2-positive metastatic breast cancer was evaluated, and the potential biomarkers of poziotinib for HER2-positive metastatic breast cancer (MBC) were investigated.
The experimental method is as follows. All participants with MBC were diagnosed with HER2-positive metastatic breast cancer according to the American Society of Clinical Oncology/College of-American Pathologist Her2 guideline. Fresh tissue samples or FFPE samples were obtained from these patients and used to extract DNA and RNA for next generation sequencing (NGS).
DNA and RNA were extracted from the samples and NGS was performed thereon. Targeted deep sequencing was performed by using a customized 381 cancer gene panel (CancerSCAN™, Samsung Hospital, Inc.) and the correlation among sequencing data, immunohistochemistry, and clinical outcome was analyzed.
An effective amount of poziotinib was administered to the breast cancer patients. The prognosis of the patients was observed. Prognosis was classified into partial remission (PR), stable disease (SD), and progressive disease (PD). For each patient, progressive free survival (PFS) was also identified.
From April 2015 to February 2016, 106 patients enrolled for clinical trials. Biomarker data were available for 75 of these patients.

[3] = tested on: EGFR family including Her1, Her2, and Her4; conditions: cited from earlier work
[4] = tested on: transplanted tumor cells; conditions: xenotransplantation animal model; cited from earlier work
[5] = tested on: lung cancer cells resistant to gefitinib or erlotinib; conditions: cited from earlier work
[6] = among the 75 patients with biomarker data

## C=CC(=O)N1CCC(Oc2cc3c(Nc4ccc(Cl)c(Cl)c4F)ncnc3cc2OC)CC1 [Poziotinib, 1-[4-[4-(3,4-dichloro-2-fluoroanilino)-7-methoxyquinazolin-6-yl]oxypiperidin-1-yl]prop-2-en-1-one]
[1]
  growth of cancer cells: inhibits the growth of cancer cells
[2]; BARD1 gene mutation present (mutation number=9)
  prognosis after poziotinib by genotype: poor prognosis
[2]; CDK12 copy number amplification (42 subjects)
  prognosis after poziotinib by genotype: good prognosis
[2]; ERBB3 gene mutation present (mutation number=10)
  prognosis after poziotinib by genotype: poor prognosis
[2]; NOTCH gene mutation present (mutation number=13)
  prognosis after poziotinib by genotype: good prognosis
[2]; PIK3CA gene mutation present (mutation number=34)
  prognosis after poziotinib by genotype: poor prognosis
[2]; SETBP1 gene mutation present (mutation number=13)
  prognosis after poziotinib by genotype: poor prognosis
[2]; SH2B3 gene mutation present (mutation number=6)
  prognosis after poziotinib by genotype: good prognosis
[2]; [6]
  number of patients with partial remission (PR): 14
  number of patients with progressive disease (PD): 20
[2]; copy number amplification of the ERBB2 gene
  prognosis after poziotinib by genotype: good prognosis
[2]; copy number deletion of the BRCA1 gene
  prognosis after poziotinib by genotype: bad prognosis
[2]; copy number deletion of the STAT3 gene
  prognosis after poziotinib by genotype: bad prognosis
[2]; deletion or amplification of the FGFR3 gene (copy number variations=5)
  prognosis after poziotinib by genotype: bad prognosis
[2]; patients 1 to 10 of the 13 patients with ERBB2 mutations, FIG. 13
  prognosis of patients with ERBB2 gene or upstream mutations: partial remission and stable disease
[3]
  inhibition of the EGFR family: selectively and irreversibly inhibits
[4]
  tumor growth: effectively blocks tumor growth
[5]
  growth of lung cancer cells: effectively inhibits the growth
